Results as given in patent US4387238A, “Epoxysuccinamic acid compounds” (Taisho Pharmaceutical Co., Ltd., priority 1978, dated 1983).

Each molecule was assayed against T1, papain (Carica papaya, UniProt P00784) (assay: Papain inhibitory activity (milk casein proteolysis)). Conditions: amount of inhibitor for 50% inhibition; pH 6.8, 40° C., casein substrate.
T1 construct: purchased Sigma Chem. Co
T1 sequence (P00784 134-345): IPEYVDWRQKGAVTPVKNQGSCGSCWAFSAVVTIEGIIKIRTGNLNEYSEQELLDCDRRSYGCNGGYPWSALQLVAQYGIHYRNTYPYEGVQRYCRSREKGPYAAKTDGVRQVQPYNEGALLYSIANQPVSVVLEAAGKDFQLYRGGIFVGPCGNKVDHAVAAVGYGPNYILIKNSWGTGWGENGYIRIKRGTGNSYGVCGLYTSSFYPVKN
Assay type: biochemical
Design: unit not given beside the values
Procedure: Papain inhibitory activity of the compounds of the present invention was assayed as follows: To 0.5 ml of a solution of papain (80 μg/ml, Sigma Chem. Co., 2x, cry.), were added 0.25 ml of 40 mM cysteine dissolved in 20 mM disodium ethylenediamine tetraacetic acid solution adjusted pH to 6.8 with sodium hydroxide and 0.25 ml of 33 mM phosphate buffer (pH 6.8) with or without inhibitor. After incubation for 15 minutes at 40° C., the resulting mixture was added to 5 ml of 1% milk casein solution in the same buffer as described above, and further incubated for 10 minutes at 40° C. Then the mixture was mixed with 5 ml of 0.44 M trichloroacetic acid solution and followed by filtration with a sheet of Toyo filter paper No. 4.
The extinction of the filtrate was read at 280 nm. The percent inhibition was calculated from the formula, 100×(B-A)/B; wherein B stands for the absorbance without inhibitor and A for the absorbance with inhibitor. The compound Nos. in Table 2 are as defined in Examples as described hereinafter.

Which ID50 does the source give for `CCOC(=O)[C@H]1O[C@@H]1C(N)=O` (relative stereo) [Compound No. 55, ethyl 2,3-epoxysuccinamate] here?
The ID50 was 3.14 γ.

How did the ID50 turn out when `CCOC(=O)[C@H]1O[C@@H]1C(=O)N(CC(C)C)CC(C)C` (relative stereo) [Compound No. 56, ethyl N,N-diisobutyl-2,3-epoxysuccinamate] was run?
The ID50 was 148.80 γ.

How did the ID50 turn out when `CCOC(=O)[C@H]1O[C@@H]1C(=O)N(CC)CC` (relative stereo) [Compound No. 57, ethyl N,N-diethyl-2,3-epoxysuccinamate] was run?
The ID50 was 46.30 γ.

How did the ID50 turn out when `CCOC(=O)[C@H]1O[C@@H]1C(=O)N(C)Cc1ccccc1` (relative stereo) [Compound No. 58, ethyl N-methyl-N-benzyl-2,3-epoxysuccinamate] was run?
The ID50 was 231.50 γ.

`CCCN(C(=O)[C@H]1O[C@@H]1C(=O)OCC)c1ccccc1` (relative stereo) [Compound No. 59, ethyl N-propyl-N-phenyl-2,3-epoxysuccinamate] was tested. Which ID50 did it give?
The ID50 was 154.50 γ.

Which ID50 does the source give for `COC(=O)[C@H]1O[C@@H]1C(=O)NC1CCCCC1` (relative stereo) [Compound No. 61, Methyl N-cyclohexyl-2,3-epoxysuccinamate] here?
Its ID50 is 19.65 γ.

How did the ID50 turn out when `CCCOC(=O)[C@H]1O[C@@H]1C(=O)Nc1ccccc1` (relative stereo) [Compound No. 62, Propyl N-phenyl-2,3-epoxysuccinamate] was run?
The ID50 was 6.16 γ.

With `CCCOC(=O)[C@H]1O[C@@H]1C(=O)NC1CCCC1` (relative stereo) [Compound No. 63, Propyl N-cyclopentyl-2,3-epoxysuccinamate] as the molecule, how does the ID50 read?
Its ID50 is 4.23 γ.

`CCCOC(=O)[C@H]1O[C@@H]1C(=O)NC(C)C` (relative stereo) [Compound No. 64, Propyl N-isopropyl-2,3-epoxysuccinamate] was tested. Which ID50 did it give?
The ID50 was 8.32 γ.

For `CCNC(=O)[C@H]1O[C@@H]1C(=O)OC(C)C` (relative stereo) [Compound No. 65, Isopropyl N-ethyl-2,3-epoxysuccinamate], which ID50 is on record?
Its ID50 is 13.65 γ.

Which ID50 does the source give for `CC(C)NC(=O)[C@H]1O[C@@H]1C(=O)OCc1ccccc1` (relative stereo) [Compound No. 67, Benzyl N-isopropyl-2,3-epoxysuccinamate] here?
The ID50 was 5.14 γ.

Which ID50 does the source give for `CCOC(=O)[C@H]1O[C@@H]1C(=O)NCCCCNC(=O)OCc1ccccc1` (relative stereo) [Compound No. 68, ethyl N-carbobenzoxyaminobutyl-2,3-epoxysuccinamate] here?
Its ID50 is 24.04 γ.

How did the ID50 turn out when `CCOC(=O)[C@H]1O[C@@H]1C(=O)NCCCCCNC(=O)OCc1ccccc1` (relative stereo) [Compound No. 69, ethyl N-carbobenzoxyaminopentyl-2,3-epoxysuccinamate] was run?
The ID50 was 12.05 γ.

Which ID50 does the source give for `COC(=O)[C@H]1O[C@@H]1C(=O)N1CCOCC1` (relative stereo) [Compound No. 70, Methyl N-oxydiethylene-2,3-epoxysuccinamate] here?
The ID50 was 90.25 γ.

For `C=CCOC(=O)[C@H]1O[C@@H]1C(=O)NCCc1ccccc1` (relative stereo) [Compound No. 71, Allyl N-phenethyl-2,3-epoxysuccinamate], which ID50 is on record?
Its ID50 is 4.13 γ.

For `CN1CCN(C(=O)[C@H]2O[C@@H]2C(=O)OCC2CCCC2)CC1` (relative stereo) [Compound No. 72, Cyclopentanemethyl N-N'-methylaminodiethylene-2,3-epoxysuccinamate], which ID50 is on record?
The ID50 was 146.51 γ.

`CCOC(=O)[C@@H]1O[C@H]1C(=O)N1CCCC1` (relative stereo) [Compound No. 73, ethyl N-tetramethylene-2,3-epoxysuccinamate] was tested. Which ID50 did it give?
Its ID50 is 128.50 γ.

`C#CCOC(=O)[C@@H]1O[C@H]1C(=O)N1CCCCC1` (relative stereo) [Compound No. 74, propargyl N-pentamethylene-2,3-epoxysuccinamate] was tested. Which ID50 did it give?
Its ID50 is 39.62 γ.

Which ID50 does the source give for `CCOC(=O)[C@@H]1O[C@H]1C(=O)N1CCCC1C` (relative stereo) [Compound No. 75, ethyl N-1'-methyltetramethylene-2,3-epoxysuccinamate] here?
The ID50 was 130.10 γ.

`CCOC(=O)[C@@H]1O[C@H]1C(=O)N1CCCCC1` (relative stereo) [Compound No. 77, Ethyl N-pentamethylene-2,3-epoxysuccinamate] was tested. Which ID50 did it give?
The ID50 was 145.21 γ.

How did the ID50 turn out when `O=C(OCc1ccccc1)[C@@H]1O[C@H]1C(=O)N1CCCCC1` (relative stereo) [Compound No. 78, Benzyl N-pentamethylene-2,3-epoxysuccinamate] was run?
The ID50 was 34.23 γ.

`O=C(OCCCC1CCCC1)[C@@H]1O[C@H]1C(=O)N1CCCC1` (relative stereo) [Compound No. 79, 3'-Cyclopentanepropyl N-tetramethylene-2,3-epoxysuccinamate] was tested. Which ID50 did it give?
Its ID50 is 36.25 γ.

With `CCOC(=O)[C@@H]1O[C@H]1C(=O)Nc1ccccc1C(=O)O` (relative stereo) [Compound No. 81, ethyl N-2'-carboxyphenyl-2,3-epoxysuccinamate] as the molecule, how does the ID50 read?
Its ID50 is 36.76 γ.

`CCOC(=O)[C@@H]1O[C@H]1C(=O)Nc1cc(Cl)ccc1C(=O)O` (relative stereo) [Compound No. 82, ethyl N-2'-carboxy-5'-chlorophenyl-2,3-epoxysuccinamte] was tested. Which ID50 did it give?
Its ID50 is 277.80 γ.

With `CCOC(=O)[C@@H]1O[C@H]1C(=O)NCC1CC1` (relative stereo) [Compound No. 83, ethyl N-cyclopropanemethyl-2,3-epoxysuccinamate] as the molecule, how does the ID50 read?
The ID50 was 130.20 γ.

How did the ID50 turn out when `CNC(=O)[C@H]1O[C@@H]1C(=O)Oc1ccccc1` (relative stereo) [Compound No. 84, phenyl N-methyl-2,3-epoxysuccinamate] was run?
Its ID50 is 12.65 γ.

Which ID50 does the source give for `CCOC(=O)[C@@H]1O[C@H]1C(=O)N(C)C` (relative stereo) [Compound No. 85, ethyl N,N-dimethyl-2,3-epoxysuccinamate] here?
Its ID50 is 39.50 γ.

Which ID50 does the source give for `CNC(=O)[C@@H]1O[C@H]1C(=O)OCCC(C)C` (relative stereo) [Compound No. 89, Isoamyl N-methyl-2,3-epoxysuccinamate] here?
The ID50 was 14.81 γ.

For `CC(C)CCOC(=O)[C@@H]1O[C@H]1C(=O)N(C)C` (relative stereo) [Compound No. 90, Isoamyl N,N-dimethyl-2,3-epoxysuccinamate], which ID50 is on record?
Its ID50 is 50.25 γ.

With `CNC(=O)[C@H]1O[C@@H]1C(=O)OCc1ccccc1` (relative stereo) [Compound No. 91, Benzyl N-methyl-2,3-epoxysuccinamate] as the molecule, how does the ID50 read?
Its ID50 is 9.68 γ.

For `CCOC(=O)[C@@H]1O[C@H]1C(=O)N1CCCCC1C(=O)OCc1ccccc1` (relative stereo) [Compound No. 92, Ethyl N-1'-carbobenzoxypentamethylene-2,3-epoxysuccinamate], which ID50 is on record?
Its ID50 is 120.10 γ.

For `CC(C)OC(=O)[C@@H]1O[C@H]1C(=O)Nc1ccccc1` (relative stereo) [Compound No. 93, isopropyl N-phenyl-2,3-epoxysuccinamate], which ID50 is on record?
Its ID50 is 21.55 γ.

For `O=C(Nc1ccccc1)[C@@H]1O[C@H]1C(=O)OCC1CCCCC1` (relative stereo) [Compound No. 94, cyclohexanemethyl N-phenyl-2,3-epoxysuccinamate], which ID50 is on record?
The ID50 was 1.51 γ.

How did the ID50 turn out when `O=C(O)[C@@H]1O[C@H]1C(=O)Nc1ccccc1` (relative stereo) [Compound No. 95, potassium N-phenyl-2,3-epoxysuccinamate] was run?
The ID50 was 0.330 γ.

`O=C(O)[C@@H]1O[C@H]1C(=O)NCc1ccccc1` (relative stereo) [Compound No. 96, potassium N-benzyl-2,3-epoxysuccinamate] was tested. Which ID50 did it give?
Its ID50 is 0.158 γ.

For `CC(C)CCNC(=O)[C@H]1O[C@@H]1C(=O)O` (relative stereo) [Compound No. 97, potassium N-isoamyl-2,3-epoxysuccinamate], which ID50 is on record?
Its ID50 is 0.266 γ.

For `O=C(O)[C@@H]1O[C@H]1C(=O)NC1CCCCC1` (relative stereo) [Compound No. 100, sodium N-cyclohexyl-2,3-epoxysuccinamate], which ID50 is on record?
The ID50 was 0.231 γ.

How did the ID50 turn out when `O=C(O)[C@@H]1O[C@H]1C(=O)N1CCCCC1` (relative stereo) [Compound No. 101, Potassium N-pentamethylene-2,3-epoxysuccinamate] was run?
Its ID50 is 4.05 γ.

How did the ID50 turn out when `CCNC(=O)[C@H]1O[C@@H]1C(=O)O` (relative stereo) [Compound No. 102, Potassium N-ethyl-2,3-epoxysuccinamate] was run?
The ID50 was 1.34 γ.

How did the ID50 turn out when `O=C(O)[C@@H]1O[C@H]1C(=O)N1CCCC1` (relative stereo) [Compound No. 103, Sodium N-tetramethylene-2,3-epoxysuccinamate] was run?
Its ID50 is 13.42 γ.

With `O=C(O)[C@@H]1O[C@H]1C(=O)Nc1ccccc1` (relative stereo) [Compound No. 104, Sodium N-phenyl-2,3-epoxysuccinamate] as the molecule, how does the ID50 read?
The ID50 was 0.315 γ.

`O=C(O)[C@@H]1O[C@H]1C(=O)Nc1ccccc1` (relative stereo) [Compound No. 105, N-phenyl-2,3-epoxysuccinamic acid] was tested. Which ID50 did it give?
The ID50 was 0.278 γ.

For `O=C(O)[C@@H]1O[C@H]1C(=O)NC1CCCCC1` (relative stereo) [Compound No. 107, N-Cyclohexyl-2,3-epoxysuccinamic acid], which ID50 is on record?
Its ID50 is 0.214 γ.

`O=C(O)[C@@H]1O[C@H]1C(=O)NCC1CCCC1` (relative stereo) [Compound No. 108, N-Cyclopentanemethyl-2,3-epoxysuccinamic acid] was tested. Which ID50 did it give?
The ID50 was 0.234 γ.
